Data as given in article doi:10.1101/2023.11.24.568596v1 (biorxiv, 2023).

Key:
Settings in all cases: binder
MST2 = target: T1, MST2 (Homo sapiens, UniProt Q13188)
T1 sequence (Q13188 1-491): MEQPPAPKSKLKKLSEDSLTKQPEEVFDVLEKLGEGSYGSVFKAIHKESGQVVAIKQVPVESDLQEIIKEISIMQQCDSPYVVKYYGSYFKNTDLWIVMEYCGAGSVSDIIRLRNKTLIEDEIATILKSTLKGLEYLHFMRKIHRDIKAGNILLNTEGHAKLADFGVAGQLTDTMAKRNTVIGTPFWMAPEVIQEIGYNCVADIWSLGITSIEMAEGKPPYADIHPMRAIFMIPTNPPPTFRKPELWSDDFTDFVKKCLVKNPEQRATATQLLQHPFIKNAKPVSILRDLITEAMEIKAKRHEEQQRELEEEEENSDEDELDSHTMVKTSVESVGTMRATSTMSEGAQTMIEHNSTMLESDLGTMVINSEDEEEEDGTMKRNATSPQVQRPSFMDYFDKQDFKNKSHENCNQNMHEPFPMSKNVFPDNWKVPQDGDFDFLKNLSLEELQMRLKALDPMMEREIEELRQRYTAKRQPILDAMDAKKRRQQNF

PAK1 = PAK1 (Homo sapiens, UniProt Q13153)
Sequence of PAK1 (Q13153 whole entry): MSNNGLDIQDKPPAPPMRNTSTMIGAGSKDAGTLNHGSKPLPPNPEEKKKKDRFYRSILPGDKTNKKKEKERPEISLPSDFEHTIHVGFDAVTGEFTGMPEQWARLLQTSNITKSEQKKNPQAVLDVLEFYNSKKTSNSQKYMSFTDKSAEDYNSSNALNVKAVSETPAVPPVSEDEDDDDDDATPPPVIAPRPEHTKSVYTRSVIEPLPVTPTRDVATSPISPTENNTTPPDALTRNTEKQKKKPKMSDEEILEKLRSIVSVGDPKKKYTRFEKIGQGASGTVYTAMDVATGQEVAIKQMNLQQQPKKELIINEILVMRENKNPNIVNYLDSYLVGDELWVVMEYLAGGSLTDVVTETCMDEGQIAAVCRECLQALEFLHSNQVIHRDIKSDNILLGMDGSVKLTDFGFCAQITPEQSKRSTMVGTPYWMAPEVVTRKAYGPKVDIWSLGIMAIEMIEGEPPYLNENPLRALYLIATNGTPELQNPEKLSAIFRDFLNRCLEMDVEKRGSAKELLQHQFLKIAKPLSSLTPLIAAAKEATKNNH

MST1 = target: T2, MST1 (Homo sapiens, UniProt Q13043)
T2 sequence (Q13043 1-487): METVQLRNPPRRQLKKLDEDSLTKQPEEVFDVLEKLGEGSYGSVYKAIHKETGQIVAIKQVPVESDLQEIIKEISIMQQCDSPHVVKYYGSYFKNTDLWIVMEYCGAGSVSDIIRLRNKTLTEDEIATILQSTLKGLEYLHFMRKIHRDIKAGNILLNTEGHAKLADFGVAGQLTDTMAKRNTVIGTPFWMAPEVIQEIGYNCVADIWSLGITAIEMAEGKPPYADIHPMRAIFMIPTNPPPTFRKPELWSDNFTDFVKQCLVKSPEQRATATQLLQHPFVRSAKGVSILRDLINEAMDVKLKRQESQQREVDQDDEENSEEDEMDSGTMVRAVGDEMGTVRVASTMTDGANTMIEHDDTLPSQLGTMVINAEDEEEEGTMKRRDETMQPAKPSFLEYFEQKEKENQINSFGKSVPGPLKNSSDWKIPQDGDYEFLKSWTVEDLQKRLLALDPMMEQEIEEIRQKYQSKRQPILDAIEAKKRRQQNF

MST4 = MST4 (Homo sapiens, UniProt Q9P289)
Sequence of MST4 (Q9P289 whole entry): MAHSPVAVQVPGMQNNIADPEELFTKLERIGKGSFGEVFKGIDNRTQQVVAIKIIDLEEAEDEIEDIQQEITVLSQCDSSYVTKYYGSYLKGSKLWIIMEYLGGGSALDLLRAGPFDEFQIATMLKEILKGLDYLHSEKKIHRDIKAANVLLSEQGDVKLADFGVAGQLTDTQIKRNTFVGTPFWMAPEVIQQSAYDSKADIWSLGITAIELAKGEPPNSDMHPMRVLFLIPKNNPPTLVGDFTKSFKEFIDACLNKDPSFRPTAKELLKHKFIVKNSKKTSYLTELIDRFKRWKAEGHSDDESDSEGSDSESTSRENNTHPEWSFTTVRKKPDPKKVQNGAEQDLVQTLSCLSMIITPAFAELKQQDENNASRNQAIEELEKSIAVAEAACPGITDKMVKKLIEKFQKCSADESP

VRK1 = target: T3, VRK1 (Homo sapiens, UniProt Q99986)
T3 sequence (Q99986 1-396): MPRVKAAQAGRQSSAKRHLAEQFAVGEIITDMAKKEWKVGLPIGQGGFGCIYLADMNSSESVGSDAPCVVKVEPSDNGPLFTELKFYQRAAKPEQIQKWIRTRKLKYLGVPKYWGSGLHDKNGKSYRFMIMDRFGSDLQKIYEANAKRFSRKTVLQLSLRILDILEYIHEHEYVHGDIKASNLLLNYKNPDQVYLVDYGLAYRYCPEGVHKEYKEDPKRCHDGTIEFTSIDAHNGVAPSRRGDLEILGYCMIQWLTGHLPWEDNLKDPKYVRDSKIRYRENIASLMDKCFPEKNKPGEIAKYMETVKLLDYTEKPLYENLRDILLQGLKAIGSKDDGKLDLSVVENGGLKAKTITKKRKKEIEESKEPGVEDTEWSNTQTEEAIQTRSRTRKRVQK

SRC = SRC (Homo sapiens, UniProt P12931)
Sequence of SRC (P12931 whole entry): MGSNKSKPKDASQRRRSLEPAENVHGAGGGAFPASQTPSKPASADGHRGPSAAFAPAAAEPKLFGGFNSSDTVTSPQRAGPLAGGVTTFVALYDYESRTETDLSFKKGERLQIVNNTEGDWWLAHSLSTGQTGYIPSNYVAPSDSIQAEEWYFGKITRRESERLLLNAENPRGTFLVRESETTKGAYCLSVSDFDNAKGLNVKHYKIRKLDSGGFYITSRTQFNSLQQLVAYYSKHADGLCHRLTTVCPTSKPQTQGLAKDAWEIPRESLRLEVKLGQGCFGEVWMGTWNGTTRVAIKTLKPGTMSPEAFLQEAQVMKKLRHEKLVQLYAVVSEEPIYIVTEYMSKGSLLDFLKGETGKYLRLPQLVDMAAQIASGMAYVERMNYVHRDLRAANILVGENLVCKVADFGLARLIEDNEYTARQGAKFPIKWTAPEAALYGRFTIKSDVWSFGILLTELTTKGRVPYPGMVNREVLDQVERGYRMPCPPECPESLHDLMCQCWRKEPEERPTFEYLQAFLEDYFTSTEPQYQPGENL

ULK3 = target: T4, ULK3 (Homo sapiens, UniProt Q6PHR2)
T4 sequence (Q6PHR2 1-472): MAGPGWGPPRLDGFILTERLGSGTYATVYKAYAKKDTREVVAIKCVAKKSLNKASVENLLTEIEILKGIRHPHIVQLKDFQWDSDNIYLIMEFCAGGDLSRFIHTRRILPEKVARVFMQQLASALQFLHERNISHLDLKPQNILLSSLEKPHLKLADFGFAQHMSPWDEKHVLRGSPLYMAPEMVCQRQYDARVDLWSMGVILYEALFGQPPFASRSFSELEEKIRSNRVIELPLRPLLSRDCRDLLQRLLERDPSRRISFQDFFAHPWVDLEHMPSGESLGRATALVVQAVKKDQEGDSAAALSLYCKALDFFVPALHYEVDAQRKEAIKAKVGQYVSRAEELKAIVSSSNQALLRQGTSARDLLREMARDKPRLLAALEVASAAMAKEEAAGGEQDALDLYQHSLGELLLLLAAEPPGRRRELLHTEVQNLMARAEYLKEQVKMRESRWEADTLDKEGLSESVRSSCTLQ

MST3 = MST3 (Homo sapiens, UniProt Q9Y6E0)
Sequence of MST3 (Q9Y6E0 whole entry): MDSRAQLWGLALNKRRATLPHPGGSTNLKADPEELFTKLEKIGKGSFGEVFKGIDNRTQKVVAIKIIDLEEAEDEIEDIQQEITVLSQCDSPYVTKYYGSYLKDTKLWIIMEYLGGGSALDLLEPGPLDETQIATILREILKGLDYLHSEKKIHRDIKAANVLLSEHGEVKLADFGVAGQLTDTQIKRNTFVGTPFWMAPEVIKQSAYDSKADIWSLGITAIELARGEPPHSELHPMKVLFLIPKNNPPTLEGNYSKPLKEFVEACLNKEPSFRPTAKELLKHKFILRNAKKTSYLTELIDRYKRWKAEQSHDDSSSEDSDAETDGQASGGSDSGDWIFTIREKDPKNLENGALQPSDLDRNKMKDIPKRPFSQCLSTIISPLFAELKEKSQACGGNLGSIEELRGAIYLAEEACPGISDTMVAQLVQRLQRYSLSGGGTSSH

SMILES	dTm MST2 (MST2) [°C]	dTm PAK1 (PAK1) [°C]	dTm MST1 (MST1) [°C]	dTm MST4 (MST4) [°C]	dTm MST3 (MST3) [°C]	other results
Cc1cccc(-c2ccc(-c3cc4cnc(Nc5ccc(C)c(O)c5)nc4n(CCCCN)c3=O)c(Cl)c2)n1 [compound 32, 8-(4-Aminobutyl)-6-(2-chloro-4-(6-methylpyridin-2-yl)phenyl)-2-((3-hydroxy-4-methylphenyl)amino)pyrido[2,3-d]pyrimidin-7(8H)-one]	13.2	9.1	8.1	15.9	17.5	ΔTm 32 (VRK1): 0.8 °C; ΔTm 32 (SRC): 5.1 °C; ΔTm 32 (ULK3): 14.3 °C
COc1cc(N2CCN(C)CC2)ccc1Nc1ncc2cc(-c3ccc(-c4cccc(C)n4)cc3Cl)c(=O)n(CCCCN)c2n1 [compound 36, 8-(4-Aminobutyl)-6-(2-chloro-4-(6-methylpyridin-2-yl)phenyl)-2-((2-methoxy-4-(4-methylpiperazin-1-yl)phenyl)amino)pyrido[2,3-d]pyrimidin-7(8H)-one]	7.4	8.8	4.0	6.7	13.5	
COc1ccc(O)c(Nc2ncc3cc(-c4ccc(-c5cccc(C)n5)cc4Cl)c(=O)n(CCCCN)c3n2)c1 [compound 34, 8-(4-Aminobutyl)-6-(2-chloro-4-(6-methylpyridin-2-yl)phenyl)-2-((2-hydroxy-5-methoxy-phenyl)amino)pyrido[2,3-d]pyrimidin-7(8H)-one]	5.4	4.5	3.8	8.3	11.0	
Cc1cccc(-c2ccc(-c3cc4cnc(NCCCc5ccc(N)cc5)nc4n(CCCCN)c3=O)c(Cl)c2)n1 [compound 25, 8-(4-Aminobutyl)-2-((3-(4-aminophenyl)propyl)amino)-6-(2-chloro-4-(6-methylpyridin-2-yl)phenyl)pyrido[2,3-d]pyrimidin-7(8H)-one]	7.2	6.8	4.9	9.7	12.2	ΔTm 25 (VRK1): 0.6 °C; ΔTm 25 (SRC): 1.0 °C; ΔTm 25 (ULK3): 11.1 °C
COc1cc(N2CCOCC2)ccc1Nc1ncc2cc(-c3ccc(-c4cccc(C)n4)cc3Cl)c(=O)n(CCCCN)c2n1 [compound 35, 8-(4-Aminobutyl)-6-(2-chloro-4-(6-methylpyridin-2-yl)phenyl)-2-((2-methoxy-4-morpholino-phenyl)amino)pyrido[2,3-d]pyrimidin-7(8H)-one]	7.5	5.0	4.6	9.2	11.0	
CNc1ncc2cc(-c3ccc(-c4cccc(C)n4)cc3Cl)c(=O)n(C[C@H]3CC[C@H](N)CC3)c2n1 [compound 23, 23]						ΔTm 23 (VRK1): 0.5 °C; ΔTm 23 (SRC): 1.2 °C; ΔTm 23 (ULK3): 13.5 °C
Cc1cccc(-c2ccc(-c3cc4cnc(Nc5ccc(O)cc5)nc4n(CCCCN)c3=O)c(Cl)c2)n1 [compound 31, 8-(4-Aminobutyl)-6-(2-chloro-4-(6-methylpyridin-2-yl)phenyl)-2-((4-hydroxyphenyl)amino) pyrido[2,3-d]pyrimidin-7(8H)-one]	13.7	9.2	8.0	15.0	17.1	ΔTm 31 (VRK1): 0.9 °C; ΔTm 31 (SRC): 5.0 °C; ΔTm 31 (ULK3): 14.5 °C
CNc1ncc2cc(-c3ccc(-c4cccc(C)n4)cc3Cl)c(=O)n(CCCCN)c2n1 [compound 20, MRLW5]						ΔTm MRLW5 (20) (VRK1): 0.0 °C; ΔTm MRLW5 (20) (SRC): 0.9 °C; ΔTm MRLW5 (20) (ULK3): 8.6 °C
CNc1ncc2cc(-c3ccc(-c4cccc(C)n4)cc3Cl)c(=O)n(CCC3CCNCC3)c2n1 [compound 22, 6-(2-Chloro-4-(6-methylpyridin-2-yl)phenyl)-2-(methylamino)-8-(2-(piperidin-4-yl)ethyl)pyrido[2,3-d]pyrimidin-7(8H)-one]						ΔTm 22 (VRK1): -0.7 °C; ΔTm 22 (SRC): 0.6 °C; ΔTm 22 (ULK3): 9.7 °C
Cc1cccc(-c2ccc(-c3cc4cnc(Nc5ccc(F)c(CO)c5)nc4n(CCCCN)c3=O)c(Cl)c2)n1 [compound 33, 8-(4-Aminobutyl)-6-(2-chloro-4-(6-methylpyridin-2-yl)phenyl)-2-((4-fluoro-3-(hydroxymethyl)phenyl)amino)pyrido[2,3-d]pyrimidin-7(8H)-one]	16.0	9.3	8.6	14.8	16.9	
Cc1cccc(-c2ccc(-c3cc4cnc(Nc5cc(C(F)(F)F)ccc5C)nc4n(CCCCN)c3=O)c(Cl)c2)n1 [compound 28, 8-(4-Aminobutyl)-6-(2-chloro-4-(6-methylpyridin-2-yl)phenyl)-2-((2-methyl-5-(trifluoromethyl)phenyl)amino)pyrido[2,3-d]pyrimidin-7(8H)-one]	10.2	5.9	5.8	9.5	13.0	ΔTm 28 (VRK1): 0.8 °C; ΔTm 28 (SRC): 3.4 °C; ΔTm 28 (ULK3): 6.5 °C
